Reference: patent publication US11866450B2, “Modulators of Cystic Fibrosis Transmembrane Conductance regulator, pharmaceutical compositions, methods of treatment, and process for making the modulators” (priority 2018, dated 2024)

Molecular target: CFTR-mediated chloride transport (Homo sapiens, UniProt P13569)
Type: cell-based
Conditions: enteroid cells incubated with test compound 18-24 hours, acute 10 μM forskolin and 300 nM Compound III; for Max. Activity: % of chloride transport with 3 μM Compound A, 3 μM Compound II and 300 nM acute Compound III triple combination control
Description: Base medium (ADF+++) consisted of Advanced DMEM/Ham's F12, 2 mM Glutamax, 10 mM HEPES, […] penicillin/streptomycin.
Intestinal enteroid maintenance medium (IEMM) consisted of ADF+++, 1× B27 supplement, 1× N2 supplement, 1.25 mM N-acetyl cysteine, 10 mM Nicotinamide, 50 ng/mL hEGF, 10 nM Gastrin, 1 μg/mL hR-spondin-1, 100 ng/mL hNoggin, TGF-b type 1 inhibitor A-83-01, 100 μg/mL Primocin, 10 μM P38 MAPK inhibitor SB202190.
Bath 1 Buffer consisted of 1 mM MgCl2, 160 mM NaCl, 4.5 mM KCl, 10 mM HEPES, 10 mM Glucose, 2 mM CaCl2).
Chloride Free Buffer consisted of 1 mM Magnesium Gluconate, 2 mM Calcium Gluconate, 4.5 mM Potassium Gluconate, 160 mM Sodium Gluconate, 10 mM HEPES, 10 mM Glucose.
Bath1 Dye Solution consisted of Bath 1 Buffer, 0.04% Pluronic F127, 20 μM Methyl Oxonol, 30 μM CaCCinh-A01, 30 μM Chicago Sky Blue.
Chloride Free Dye Solution consisted of Chloride Free Buffer, 0.04% Pluronic F127, 20 μM Methyl Oxonol, 30 μM CaCCinh-A01, 30 μM Chicago Sky Blue.
Chloride Free Dye Stimulation Solution consisted of Chloride Free Dye Solution, 10 μM forskolin, 100 μM IBMX, and 300 nM Compound III.
Human intestinal epithelial enteroid cells were obtained from the Hubrecht Institute for Developmental Biology and Stem Cell Research, Utrecht, The Netherlands and expanded in T-Flasks as previously described (Dekkers J F, Wiegerinck C L, de Jonge H R, Bronsveld I, Janssens H M, de Winter-de Groot K M, Brandsma A M, de Jong N W M, Bijvelds M J C, Scholte B J, Nieuwenhuis E E S, van den Brink S, Clevers H, van der Ent C K, Middendorp S and M Beekman J M. A functional CFTR assay using primary cystic fibrosis intestinal organoids. Nat Med. 2013 July; 19(7):939-45).
Cells were recovered in cell recovery solution, collected by centrifugation at 650 rpm for 5 min at 4° C., resuspended in TryPLE and incubated for 5 min at 37° C. Cells were then collected by centrifugation at 650 rpm for 5 min at 4° C. and resuspended in IEMM containing 10 μM ROCK inhibitor (RI) (trans-4-[(1R)-1-aminoethyl]-N-4-pyridinylcyclohexanecarboxamide). The cell suspension was passed through a 40 μm cell strainer and resuspended at 1×10^6 cells/mL in IEMM containing 10 μM RI. Cells were seeded at 5000 cells/well into multi-well plates and incubated for overnight at 37° C., 95% humidity and 5% CO2 prior to assay.
Enteroid cells were incubated with test compound in IEMM for 18-24 hours at 37° C., 95% humidity and 5% CO2. Following compound incubations, a membrane potential dye assay was employed using a FLIPR Tetra to directly measure the potency and efficacy of the test compound on CFTR-mediated chloride transport following acute addition of 10 μM forskolin and 300 nM Compound III. Briefly, cells were washed 5 times in Bath 1 Buffer. Bath 1 Dye Solution was added and the cells were incubated for 25 min at room temperature. Following dye incubation, cells were washed 3 times in Chloride Free Dye Solution. Chloride transport was initiated by addition of Chloride Free Dye Stimulation Solution and the fluorescence signal was read for 15 min. The CFTR-mediated chloride transport for each condition was determined from the AUC of the fluorescence response to acute forskolin and 300 nM Compound III stimulation. Chloride transport was then expressed as a percentage of the chloride transport following treatment with 3 μM Compound A, 3 μM Compound II and 300 nM acute Compound III triple combination control (% Activity).

Sequence of CFTR-mediated chloride transport (P13569 whole entry, looked up): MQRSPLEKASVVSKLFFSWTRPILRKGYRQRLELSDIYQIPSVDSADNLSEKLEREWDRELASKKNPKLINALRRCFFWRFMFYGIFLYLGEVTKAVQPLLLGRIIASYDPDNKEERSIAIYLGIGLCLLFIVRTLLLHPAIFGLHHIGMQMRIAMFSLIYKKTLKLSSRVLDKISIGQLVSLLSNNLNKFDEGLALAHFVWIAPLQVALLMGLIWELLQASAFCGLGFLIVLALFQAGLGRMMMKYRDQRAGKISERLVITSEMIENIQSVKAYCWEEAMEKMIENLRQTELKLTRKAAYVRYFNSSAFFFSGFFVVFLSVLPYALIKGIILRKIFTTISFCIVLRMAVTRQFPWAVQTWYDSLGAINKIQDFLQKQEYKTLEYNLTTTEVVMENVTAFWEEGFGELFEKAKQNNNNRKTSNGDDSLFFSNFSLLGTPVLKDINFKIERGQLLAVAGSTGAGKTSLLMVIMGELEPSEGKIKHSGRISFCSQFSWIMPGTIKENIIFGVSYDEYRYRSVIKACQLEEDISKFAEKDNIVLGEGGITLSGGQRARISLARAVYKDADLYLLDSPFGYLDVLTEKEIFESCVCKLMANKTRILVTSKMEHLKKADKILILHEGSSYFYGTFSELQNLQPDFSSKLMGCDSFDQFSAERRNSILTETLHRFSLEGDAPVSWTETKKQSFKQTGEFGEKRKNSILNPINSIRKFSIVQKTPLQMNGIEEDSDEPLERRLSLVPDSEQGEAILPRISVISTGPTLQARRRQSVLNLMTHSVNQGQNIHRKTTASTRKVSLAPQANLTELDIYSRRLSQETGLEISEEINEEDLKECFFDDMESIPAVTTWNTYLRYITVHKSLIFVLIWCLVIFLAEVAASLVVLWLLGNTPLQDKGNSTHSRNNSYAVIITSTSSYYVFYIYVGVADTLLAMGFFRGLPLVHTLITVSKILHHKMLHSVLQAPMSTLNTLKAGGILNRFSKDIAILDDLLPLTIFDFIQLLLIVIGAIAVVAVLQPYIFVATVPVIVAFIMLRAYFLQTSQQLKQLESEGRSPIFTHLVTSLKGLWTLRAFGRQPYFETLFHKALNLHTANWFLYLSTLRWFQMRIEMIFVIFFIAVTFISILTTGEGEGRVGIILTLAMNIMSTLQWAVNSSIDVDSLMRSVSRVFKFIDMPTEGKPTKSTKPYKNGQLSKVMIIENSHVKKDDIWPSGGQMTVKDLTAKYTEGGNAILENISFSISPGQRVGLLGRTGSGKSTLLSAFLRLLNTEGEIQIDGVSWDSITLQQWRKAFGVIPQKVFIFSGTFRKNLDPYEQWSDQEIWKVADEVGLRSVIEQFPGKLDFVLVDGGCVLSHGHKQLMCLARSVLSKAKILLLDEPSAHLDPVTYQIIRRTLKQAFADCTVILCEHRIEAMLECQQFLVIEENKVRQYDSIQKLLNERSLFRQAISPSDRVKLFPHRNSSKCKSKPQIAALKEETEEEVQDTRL

Structure (SMILES)	EC50 [nM]	Max. Activity
CC1(C)CC2CCCNc3cccc(n3)S(=O)(=O)NC(=O)c3ccc(-n4ccc(OCC5C6(CC6)C56CC6)n4)nc3N1C2 (racemic) [Compound 105, 8-[3-({dispiro[2.0.2.1]heptan-7-yl}methoxy)-1H-pyrazol-1-yl]-12,12-dimethyl-2λ^6-thia-3,9,11,18,23-pentaazatetracyclo[17.3.1.111,14.05,10]tetracosa-1(22),5,7,9,19(23),20-hexaene-2,2,4-trione]	< 1000	+++ (+++ is >60%)
CC1(C)C[C@H]2CCCCCNc3cccc(n3)S(=O)(=O)NC(=O)c3ccc(-n4ccc(OCCC5(C(F)(F)F)CC5)n4)nc3N1C2 (single isomer, unassigned) [Compound 64, 12,12-dimethyl-8-(3-{2-[1-(trifluoromethyl)cyclopropyl]ethoxy}-1H-pyrazol-1-yl)-2λ^6-thia-3,9,11,20,25-pentaazatetracyclo[19.3.1.111,14.05,10]hexacosa-1(24),5,7,9,21(25),22-hexaene-2,2,4-trione]	< 1000	++ (++ is 30-60%)
C[C@@H]1CC[C@H]2CN(c3nc(N4CCN(CCC(C)(C)C)C4=O)ccc3C(=O)NS(=O)(=O)c3cccc(n3)N1)C(C)(C)C2 (single isomer, unassigned) [Compound 216, 8-[3-(3,3-dimethylbutyl)-2-oxoimidazolidin-1-yl]-12,12,17-trimethyl-2λ^6-thia-3,9,11,18,23-pentaazatetracyclo[17.3.1.111,14.05,10]tetracosa-1(22),5,7,9,19(23),20-hexaene-2,2,4-trione]	< 1000	+++ (+++ is >60%)
CC1(C)C[C@H]2CCCn3ccc(n3)S(=O)(=O)NC(=O)c3ccc(N4CC[C@H](OCCC5(C(F)(F)F)CC5)C4=O)nc3N1C2 (single isomer, unassigned) [Compound 191, 20,20-Dimethyl-4-(2-oxo-3-{2-[1-(trifluoromethyl)cyclopropyl]ethoxy}pyrrolidin-1-yl)-10λ^6-thia-1,3,9,14,22-pentaazatetracyclo[16.2.1.111,14.02,7]docosa-2,4,6,11(22),12-pentaene-8,10,10-trione]	< 1000	++ (++ is 30-60%)
CC1(C)C[C@@H]2CCCNc3cccc(n3)S(=O)(=O)NC(=O)c3ccc(-n4ccc(OC[C@@H](O)C5C6(CC6)C56CC6)n4)nc3N1C2 (single isomer, unassigned) [Compound 293]	< 1000	+++ (+++ is >60%)
[2H]c1ccc2nc1NCCC[C@@H]1CN(c3nc(-n4ccc(OC([2H])([2H])C([2H])([2H])C5C6(CC6)C56CC6)n4)ccc3C(=O)NS2(=O)=O)C(C)(C)C1 [Compound 301, (14S)-8-[3-(2-{dispiro[2.0.2.1]heptan-7-yl}-1,1,2,2-tetradeuterio-ethoxy)-1H-pyrazol-1-yl]-12,12-dimethyl(20-deuterio)-2λ^6-thia-3,9,11,18,23-pentaazatetracyclo[17.3.1.111,14.05,10]tetracosa-1(23),5,7,9,19,21-hexaene-2,2,4-trione]	< 1000	+++ (+++ is >60%)
CC1(C)CC[C@H]2CCNc3cccc(n3)S(=O)(=O)NC(=O)c3ccc(-n4ccc(OCCC5(C(F)(F)F)CC5)n4)nc3N21 (single isomer, unassigned) [Compound 116, 8,8-Dimethyl-12-(3-{2-[1-(trifluoromethyl)cyclopropyl]ethoxy}-1H-pyrazol-1-yl)-18λ^6-thia-2,9,11,17,23-pentaazatetracyclo[17.3.1.05,9.010,15]tricosa-1(23),10(15),11,13,19,21-hexaene-16,18,18-trione]	< 1000	++ (++ is 30-60%)
CC1(C)C[C@@H]2CCCNc3cccc(n3)S(=O)(=O)NC(=O)c3ccc(N4CCN(C5CCCCC5)C4=O)nc3N1C2 [Compound 200, (14S)-8-(3-cyclohexyl-2-oxoimidazolidin-1-yl)-12,12-dimethyl-2λ^6-thia-3,9,11,18,23-pentaazatetracyclo[17.3.1.111,14.05,10]tetracosa-1(22),5,7,9,19(23),20-hexaene-2,2,4-trione]	< 1000	+ (+ is <30%)
CC1(C)C[C@H]2CCCCc3cccc(c3)S(=O)(=O)NC(=O)c3ccc(-n4ccc(OCCC5(C(F)(F)F)CC5)n4)nc3N1C2 (single isomer, unassigned) [Compound 56, 12,12-dimethyl-8-(3-{2-[1-(trifluoromethyl)cyclopropyl]ethoxy}-1H-pyrazol-1-yl)-2λ^6-thia-3,9,11-triazatetracyclo[17.3.1.111,14.05,10]tetracosa-1(22),5,7,9,19(23),20-hexaene-2,2,4-trione]	< 1000	+ (+ is <30%)
CC1(C)CC[C@H]2CCCNc3cccc(n3)S(=O)(=O)NC(=O)c3ccc(-n4ccc(OCC5C6(CC6)C56CC6)n4)nc3N21 (single isomer, unassigned) [Compound 124, 8-[3-({dispiro[2.0.2.1]heptan-7-yl}methoxy)-1H-pyrazol-1-yl]-12,12-dimethyl-2λ^6-thia-3,9,11,19,24-pentaazatetracyclo[18.3.1.05,10.011,15]tetracosa-1(23),5(10),6,8,20(24),21-hexaene-2,2,4-trione]	< 1000	+++ (+++ is >60%)
CC1(C)C[C@H]2CCNc3cccc(n3)S(=O)(=O)NC(=O)c3ccc(-n4ccc(OCCC5(C(F)(F)F)CC5)n4)nc3N1C2 (single isomer, unassigned) [Compound 27, 7,7-dimethyl-11-(3-{2-[1-(trifluoromethyl)cyclopropyl]ethoxy}-1H-pyrazol-1-yl)-17λ^6-thia-2,8,10,16,22-pentaazatetracyclo[16.3.1.15,8.09,14]tricosa-1(21),9,11,13,18(22),19-hexaene-15,17,17-trione]	< 1000	+++ (+++ is >60%)
CC1(C)CC[C@H]2CCCNc3cccc(n3)S(=O)(=O)NC(=O)c3ccc(-n4ccc(OCCC(C5CC5)C5CC5)n4)nc3N21 (single isomer, unassigned) [Compound 136, 8-[3-(3,3-dicyclopropylpropoxy)-1H-pyrazol-1-yl]-12,12-dimethyl-2λ^6-thia-3,9,11,19,24-pentaazatetracyclo[18.3.1.05,10.011,15]tetracosa-1(23),5(10),6,8,20(24),21-hexaene-2,2,4-trione]	< 1000	+++ (+++ is >60%)
CC1(C)C[C@@H]2CCCNc3cccc(n3)S(=O)(=O)NC(=O)c3ccc(N4CCN(CC56CC7CC(CC(C7)C5)C6)C4=O)nc3N1C2 [Compound 229, (14S)-8-{3-[(adamantan-1-yl)methyl]-2-oxoimidazolidin-1-yl}-12,12-dimethyl-2λ^6-thia-3,9,11,18,23-pentaazatetracyclo[17.3.1.111,14.05,10]tetracosa-1(22),5,7,9,19(23),20-hexaene-2,2,4-trione]	< 1000	++ (++ is 30-60%)
CC1(C)C[C@@H]2CN1c1nc(-n3ccc(OCCC4C5(CC5)C45CC5)n3)ccc1C(=O)NS(=O)(=O)c1cccc(n1)NCC(F)(F)C2 (single isomer, unassigned) [Compound 304, 8-[3-(2-{dispiro[2.0.2.1]heptan-7-yl}ethoxy)-1H-pyrazol-1-yl]-16,16-difluoro-12,12-dimethyl-2λ^6-thia-3,9,11,18,23-pentaazatetracyclo[17.3.1.111,14.05,10]tetracosa-1(22),5,7,9,19(23),20-hexaene-2,2,4-trione]	< 1000	+++ (+++ is >60%)
